Data taken from PubChem BioAssay AID330 (DTP/NCI, 2004).
“And” between values parts separate entries of the source, which are not always exact repeats. Equal entries are not always repeated. Toxic doses and inconclusive results are not listed. How the source made its calls: active means survival T/C of 150% or more; inactive means T/C below 125% in these data.

Test system: P388 leukemia ip, CD2F1 mice, survival T/C
Assay: NCI In Vivo Anticancer Drug Screen. Data for tumor model P388 Leukemia (intraperitoneal) in CD2F1 (CDF1) mice
Conditions: endpoint: median survival time, higher = longer survival
Summary of the method: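 Mice carrying the transplanted tumor received test compound or vehicle. Survival was recorded in each group, and the value is the treated-group measurement divided by that of the vehicle-treated control group.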

[1] = dose: 60.0 mg/kg/injection, schedule: Q01DX005 (ip), vehicle: Klucel (hydroxypropylcellulose) (HPC)
[2] = dose: 120.0 mg/kg/injection, schedule: Q01DX005 (ip), vehicle: Klucel (hydroxypropylcellulose) (HPC)
[3] = dose: 50.0 mg/kg/injection, schedule: Q01DX009 (ip), vehicle: saline with Tween-80
[4] = dose: 100.0 mg/kg/injection, schedule: Q01DX009 (ip), vehicle: saline with Tween-80
[5] = dose: 50.0 mg/kg/injection, schedule: Q01DX009 (ip), vehicle: Klucel (hydroxypropylcellulose) (HPC)
[6] = dose: 100.0 mg/kg/injection, schedule: Q01DX009 (ip), vehicle: Klucel (hydroxypropylcellulose) (HPC)
[7] = dose: 200.0 mg/kg/injection, schedule: Q01DX009 (ip), vehicle: Klucel (hydroxypropylcellulose) (HPC)
[8] = dose: 50.0 mg/kg/injection, schedule: Q01DX005 (ip), vehicle: saline with Tween-80
[9] = dose: 100.0 mg/kg/injection, schedule: Q01DX005 (ip), vehicle: saline with Tween-80
[10] = dose: 200.0 mg/kg/injection, schedule: Q01DX005 (ip), vehicle: saline with Tween-80
[11] = dose: 25.0 mg/kg/injection, schedule: Q01DX005 (ip), vehicle: saline with Tween-80

Measured: T/C

CN(C)c1ccc(SC(=S)NCc2ccccc2)cc1
inactive: [1] 88 % of control | [2] 88 % of control

CCCCCC(CN(C)C)C(=O)/C=C/c1ccc2c(c1)OCO2 (stereo not given)
inactive: [3] 123 % of control | [4] 109 % of control

Nc1nnc(Cc2ccccc2[N+](=O)[O-])c(=O)[nH]1
inactive: [5] 113 % of control | [6] 115 % of control | [7] 105 % of control

CC(C)c1ccc(/C=C/c2ccc(N(C)C)cc2)cc1
inactive: dose: 50.0 mg/kg/injection, schedule: Q01DX009 (sc), vehicle: olive oil, sesame oil, peanut oil 100 % of control | dose: 100.0 mg/kg/injection, schedule: Q01DX009 (sc), vehicle: olive oil, sesame oil, peanut oil 100 % of control | dose: 200.0 mg/kg/injection, schedule: Q01DX009 (sc), vehicle: olive oil, sesame oil, peanut oil 97 % of control

O=C(Nc1ccc(F)cc1F)Oc1cccc2cccnc12
inactive: [5] 114 % of control | [6] 112 % of control

Cn1c(=O)c2c(ncn2CCNC(c2ccccc2)c2ccccc2)n(C)c1=O
inactive: dose: 50.0 mg/kg/injection, schedule: Q01DX005 (ip), vehicle: water 107 % of control | dose: 100.0 mg/kg/injection, schedule: Q01DX005 (ip), vehicle: water 107 % of control | dose: 200.0 mg/kg/injection, schedule: Q01DX005 (ip), vehicle: water 107 % of control

C[Si]1(C)CCCCC1
inactive: dose: 50.0 mg/kg/injection, schedule: Q01DX009 (ip), vehicle: saline 102 % of control | dose: 100.0 mg/kg/injection, schedule: Q01DX009 (ip), vehicle: saline 95 % of control | dose: 200.0 mg/kg/injection, schedule: Q01DX009 (ip), vehicle: saline 101 % of control | dose: 400.0 mg/kg/injection, schedule: Q01DX009 (ip), vehicle: saline 102 % of control

Cc1ccc(NC(=O)c2cc(C)ccc2N)cc1
inactive: [8] 91 % of control | [9] 91 % of control | [10] 101 % of control

CC1=C(C)C(=O)OC(C(C)(O)C2(O)CCC3(O)C4CC(Cl)C5(O)C(O)C=CC(=O)C5(C)C4CCC32C)C1 (stereo not given)
inactive: dose: 10.0 mg/kg/injection, schedule: Q01DX005 (ip), vehicle: saline + alcohol 106 % of control | dose: 20.0 mg/kg/injection, schedule: Q01DX005 (ip), vehicle: saline + alcohol 108 % of control | dose: 25.0 mg/kg/injection, schedule: Q01DX005 (ip), vehicle: saline + alcohol 104 % of control | dose: 40.0 mg/kg/injection, schedule: Q01DX005 (ip), vehicle: saline + alcohol 112 % of control | dose: 50.0 mg/kg/injection, schedule: Q01DX005 (ip), vehicle: saline + alcohol 100 % of control and 104 % of control | dose: 80.0 mg/kg/injection, schedule: Q01DX005 (ip), vehicle: saline + alcohol 117 % of control | dose: 100.0 mg/kg/injection, schedule: Q01DX005 (ip), vehicle: saline + alcohol 104 % of control (2×) and 120 % of control | dose: 200.0 mg/kg/injection, schedule: Q01DX005 (ip), vehicle: saline + alcohol 99 % of control and 109 % of control and 111 % of control

COc1ccccc1C1c2cc3c(cc2OC(C)(N2CCCC2)C1C)OCO3 (stereo not given)
inactive: dose: 100.0 mg/kg/injection, schedule: Q04DX002 (ip), vehicle: saline with Tween-80 96 % of control | dose: 200.0 mg/kg/injection, schedule: Q04DX002 (ip), vehicle: saline with Tween-80 102 % of control | dose: 400.0 mg/kg/injection, schedule: Q04DX002 (ip), vehicle: saline with Tween-80 99 % of control

CN(C)c1ccc(C2=C(c3ccccc3)C(=O)C3(c4ccccc4)CC23c2ccc(N(C)C)cc2)cc1 (stereo not given)
inactive: dose: 50.0 mg/kg/injection, schedule: Q01DX005 (ip), vehicle: Klucel + Tween-80 92 % of control | dose: 100.0 mg/kg/injection, schedule: Q01DX005 (ip), vehicle: Klucel + Tween-80 90 % of control | dose: 200.0 mg/kg/injection, schedule: Q01DX005 (ip), vehicle: Klucel + Tween-80 90 % of control

Cn1cc(Cl)c2ccccc2c1=O
inactive: [8] 101 % of control | [9] 99 % of control | [10] 100 % of control

N/C(=N\N=C1CCCCC1)N[N+](=O)[O-]
inactive: dose: 50.0 mg/kg/injection, schedule: Q01DX005 (ip), vehicle: Klucel (hydroxypropylcellulose) (HPC) 105 % of control | dose: 100.0 mg/kg/injection, schedule: Q01DX005 (ip), vehicle: Klucel (hydroxypropylcellulose) (HPC) 102 % of control | dose: 200.0 mg/kg/injection, schedule: Q01DX005 (ip), vehicle: Klucel (hydroxypropylcellulose) (HPC) 102 % of control

CCOC(=O)C1=C(O)C2(CC(C)=C(C)CS2=O)SC1=Nc1ccccc1 (stereo not given)
inactive: dose: 60.0 mg/kg/injection, schedule: Q01DX005 (ip), vehicle: saline with Tween-80 96 % of control | dose: 120.0 mg/kg/injection, schedule: Q01DX005 (ip), vehicle: saline with Tween-80 107 % of control | dose: 240.0 mg/kg/injection, schedule: Q01DX005 (ip), vehicle: saline with Tween-80 104 % of control

C[Si](C)(C)SCCS[Si](C)(C)C
inactive: [8] 98 % of control | [9] 98 % of control | [10] 95 % of control

Cn1c(-c2ccccc2)c2c(c1-c1ccccc1)C(=O)c1c(c(-c3ccccc3)n(C)c1-c1ccccc1)C2=O
inactive: [5] 94 % of control | [6] 92 % of control | [7] 97 % of control

O=C(O)CCCC(=O)c1ccc2ccccc2c1
inactive: [3] 98 % of control | [4] 98 % of control | dose: 200.0 mg/kg/injection, schedule: Q01DX009 (ip), vehicle: saline with Tween-80 99 % of control

COc1ccc2c(c1)C(NCCCCCCNc1cc(C)[n+](C)c3ccc(OC)cc13)=CC(C)N2C (stereo not given)
inactive: [11] 113 % of control | [8] 118 % of control

CC1(C)CC[C@]2(C(=O)O)CC[C@]3(C)C(=CC[C@@H]4[C@@]5(C)CC[C@H](O)C(C)(C)[C@@H]5CC[C@]43C)[C@@H]2C1
inactive: dose: 12.5 mg/kg/injection, schedule: Q01DX009 (ip), vehicle: saline with Tween-80 108 % of control | dose: 25.0 mg/kg/injection, schedule: Q01DX009 (ip), vehicle: saline with Tween-80 99 % of control

S=c1nc[nH]c2ccc3[nH]ncc3c12
inactive: dose: 6.25 mg/kg/injection, schedule: Q01DX005 (ip), vehicle: saline with Tween-80 93 % of control | dose: 12.5 mg/kg/injection, schedule: Q01DX005 (ip), vehicle: saline with Tween-80 90 % of control | [11] 92 % of control

COc1ccc(C(c2cc3c(cc2O)OCO3)N2CCCC2)c(OC)c1 (stereo not given)
inactive: [1] 111 % of control | [2] 118 % of control

CN(C)CCCCCC[N+](C)(C)Cc1ccc(C[N+](C)(C)CCCCCC[N+](C)(C)Cc2ccc(CCl)cc2)cc1
inactive: dose: 3.12 mg/kg/injection, schedule: Q04DX003 (ip), vehicle: saline 108 % of control | dose: 6.25 mg/kg/injection, schedule: Q04DX003 (ip), vehicle: saline 106 % of control | dose: 12.5 mg/kg/injection, schedule: Q04DX003 (ip), vehicle: saline 97 % of control

O=C1c2c(O)ccc(Cl)c2C(=O)C2CC=CCC12 (stereo not given)
inactive: dose: 50.0 mg/kg/injection, schedule: Q04DX003 (ip), vehicle: DMSO 94 % of control | dose: 100.0 mg/kg/injection, schedule: Q04DX003 (ip), vehicle: DMSO 88 % of control | dose: 200.0 mg/kg/injection, schedule: Q04DX003 (ip), vehicle: DMSO 87 % of control

Cc1cc(N)ncc1[N+](=O)[O-]
inactive: [8] 99 % of control | [9] 101 % of control | [10] 98 % of control

CCc1nn2c(-c3cnns3)nnc2s1
inactive: dose: 100.0 mg/kg/injection, schedule: Q01DX001 (ip), vehicle: Klucel (hydroxypropylcellulose) (HPC) 99 % of control | dose: 200.0 mg/kg/injection, schedule: Q01DX001 (ip), vehicle: Klucel (hydroxypropylcellulose) (HPC) 104 % of control | dose: 400.0 mg/kg/injection, schedule: Q01DX001 (ip), vehicle: Klucel (hydroxypropylcellulose) (HPC) 99 % of control
